Results as given in paper PMC11645656, “MRGPRX4 mediates phospho-drug associated pruritus in a humanized mouse model” (Science translational medicine, 2024).
Values joined by “and” are separate entries in the source; they are usually repeats but may differ in a detail not shown here. Equal entries are not always repeated.

Key:
MRGPRX4 (S83) = molecular target: T1, MRGPRX4 (S83) (Homo sapiens, UniProt Q96LA9, L83S); experiment: EC50 determination, intracellular calcium mobilization in MRGPRX4 stably expressed HEK293 cells (FLIPR Calcium 5, Flexstation-3); type: cell-based; parameters: Fig. 1D dose-response, calcium mobilization response (individual replicate) / calcium mobilization response (Fig. 1D dose-response raw data): unit not given here; settings: individual replicate values, listed as Phenytoin Sodium; for Fig. 1D dose-response, calcium response at Concentration (M): phenytoin series
T1 construct: expressed in transfected cells
T1 sequence (Q96LA9 whole entry L83S): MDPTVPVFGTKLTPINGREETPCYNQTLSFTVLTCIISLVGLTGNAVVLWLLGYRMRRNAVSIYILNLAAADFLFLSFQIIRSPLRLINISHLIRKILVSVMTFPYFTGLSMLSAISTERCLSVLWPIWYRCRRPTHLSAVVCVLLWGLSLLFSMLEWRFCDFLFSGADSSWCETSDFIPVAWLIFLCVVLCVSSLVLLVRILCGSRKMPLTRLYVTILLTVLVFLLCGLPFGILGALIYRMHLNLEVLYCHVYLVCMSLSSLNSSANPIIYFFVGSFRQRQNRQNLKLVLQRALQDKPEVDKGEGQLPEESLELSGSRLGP
How it was run: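 EC50 came from a four-parameter logistic fit to averaged triplicate responses, each response being maximum post-stimulation signal less baseline. Intracellular calcium was monitored with Calcium 5 dye in HBSS with 20 mM HEPES, pH 7.4, after 1 h dye loading at 37 °C, using stably transfected HEK293 cells and parental controls.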

[1] = test system: NP2-X4+ mice (MRGPRX4 in Mrgpra3+ NP2 sensory neurons); experiment: Itch behavioral study (scratching bouts after subcutaneous nape injection) in NP2-X4+ mice; type: in vivo, mouse
HTLA cells = experiment: PRESTO-Tango β-arrestin recruitment assay, parental HTLA cells without MRGPRX4 (control, fig. S1); type: cell-based
Excerpt: Supplement NIHMS2038790-supplement-table.xlsx, sheet "fig. S1" | column: Concentration (M)

[2] = IV, clinical trials; ref New Drug Application: 020450; cited from earlier work
MRGPRX4 WT (S83) = MRGPRX4 WT (S83) (Homo sapiens, UniProt Q96LA9, L83S); experiment: PRESTO-Tango β-arrestin recruitment assay, HTLA cells stably expressing WT (S83) MRGPRX4; type: cell-based; parameters: expressed in transfected cells; settings: HTLA::MRGPRX4
Chain of MRGPRX4 WT (S83) (Q96LA9 whole entry L83S): as above

SMILES: O=C1NC(=O)C(c2ccccc2)(c2ccccc2)N1 [Phenytoin]
- Fig. 1D dose-response, calcium response at Concentration (M) (MRGPRX4 (S83); 4.88281e-7 M): -45.834 and -46.962 and -43.233
- Fig. 1D dose-response, calcium response at Concentration (M) (MRGPRX4 (S83); 9.76563e-7 M): -42.023 and -51.874 and -41.78
- Fig. 1D dose-response, calcium response at Concentration (M) (MRGPRX4 (S83); 1.95313e-6 M): -57.631 and -43.259 and -52.591
- Fig. 1D dose-response, calcium response at Concentration (M) (MRGPRX4 (S83); 3.90625e-6 M): -30.902 and -51.949 and -54.701
- Fig. 1D dose-response, calcium response at Concentration (M) (MRGPRX4 (S83); 7.8125e-6 M): -36.341 and -24.025 and -23.478
- Fig. 1D dose-response, calcium response at Concentration (M) (MRGPRX4 (S83); 1.5625e-5 M): -24.49 and -31.993 and -24.486
- Fig. 1D dose-response, calcium response at Concentration (M) (MRGPRX4 (S83); 3.125e-5 M): -42.34 and -14.448 and -21.073
- Fig. 1D dose-response, calcium response at Concentration (M) (MRGPRX4 (S83); 6.25e-5 M): -29.178 and -38.728 and -12.364
- Fig. 1D dose-response, calcium response at Concentration (M) (MRGPRX4 (S83); 0.00025 M): 21.7467 and 26.6867 and 14.9677
- Fig. 1D dose-response, calcium response at Concentration (M) (MRGPRX4 (S83); 0.0005 M): -0.1003 and 34.5457 and 1.141
- calcium mobilization response (Fig. 1D dose-response raw data) (MRGPRX4 (S83); concentration 4.88281e-7 M): -35.967 and -38.387 and -9.249 and -43.815 and -12.548 and -27.242
- calcium mobilization response (Fig. 1D dose-response raw data) (MRGPRX4 (S83); concentration 9.76563e-7 M): -3.6717 and 0.5703 and -1.3847 and -25.061 and -39.258 and -5.762
- calcium mobilization response (Fig. 1D dose-response raw data) (MRGPRX4 (S83); concentration 1.95313e-6 M): -0.8477 and -0.3367 and -2.8407 and -17.925 and -29.096 and -31.733
- calcium mobilization response (Fig. 1D dose-response raw data) (MRGPRX4 (S83); concentration 3.90625e-6 M): -4.2817 and -4.6827 and 7.036 and -45.513 and -21.585 and -2.642
- calcium mobilization response (Fig. 1D dose-response raw data) (MRGPRX4 (S83); concentration 7.8125e-6 M): -6.1147 and -5.4597 and 3.666 and -0.809 and -24.700 and -20.368
- calcium mobilization response (Fig. 1D dose-response raw data) (MRGPRX4 (S83); concentration 1.5625e-5 M): -2.1987 and 5.167 and -0.3347 and -19.624 and -8.530 and -11.014
- calcium mobilization response (Fig. 1D dose-response raw data) (MRGPRX4 (S83); concentration 3.125e-5 M): -5.0347 and -1.5897 and 2.935 and -19.576 and -12.591 and -8.608
- calcium mobilization response (Fig. 1D dose-response raw data) (MRGPRX4 (S83); concentration 6.25e-5 M): 13.7733 and 12.6223 and 5.79 and -9.327 and -10.716 and -3.999
- calcium mobilization response (Fig. 1D dose-response raw data) (MRGPRX4 (S83); concentration 0.00025 M): 17.3763 and 20.0503 and 26.8243 and 17.981 and 21.189 and 24.656
- calcium mobilization response (Fig. 1D dose-response raw data) (MRGPRX4 (S83); concentration 0.0005 M): 40.1453 and 34.4913 and 26.1333 and 33.840 and 5.994 and 28.344
- Scratching / itch behavior, NP2-X4+ mice vs WT littermates ([1]; 50 μl 10 mM nape injection, 30 min): no differences in itch behavior were detected
- Scratching bouts of individual animals ([1]; NP2-X4+, 30 min after injection of 50 μl 10 mM into the nape, each cell one mouse): 6 and 0 and 19 and 1 (2×) and 14 and 16 and 21 and 12 and 20
- PRESTO-Tango response (fig. S1), single replicate (HTLA cells; concentration 4.88281e-6 M): 0.008545 and 0.005867 and 0.007953 and 0.006901 and 0.004547 and 0.009824
- PRESTO-Tango response (fig. S1), single replicate (HTLA cells; concentration 9.76563e-6 M): 0.00741 and 0.01006 and 0.006055 and 0.01246 and 0.001908 and 0.0161
- PRESTO-Tango response (fig. S1), single replicate (HTLA cells; concentration 1.95313e-5 M): 0.004145 and 0.01453 and 0.008851 and 0.01106 and 0.007187 and 0.01768
- PRESTO-Tango response (fig. S1), single replicate (HTLA cells; concentration 3.90625e-5 M): 0.005318 and 0.007104 and 0.005862 and 0.009351 and 0.00878 and 0.001453
- PRESTO-Tango response (fig. S1), single replicate (HTLA cells; concentration 7.8125e-5 M): 0.01242 and 0.005662 and 0.007299 and 0.009043 and 0.01323 and 0.004261
- PRESTO-Tango response (fig. S1), single replicate (HTLA cells; concentration 0.0003125 M): 0.006045 and 0.003571 and 0.004631 and 0.006824 and 0.00263 and 0.004138
- PRESTO-Tango response (fig. S1), single replicate (HTLA cells; concentration 0.000625 M): 0.006823 and 0.004668 and 0.00481 and 0.009762 and 0.00692 and 0.01249
- PRESTO-Tango response (fig. S1), single replicate (HTLA cells; concentration 0.0025 M): 0.006747 and 0.00542 and 0.005105 and 0.007273 and 0.002426 and 0.006102
- PRESTO-Tango response (fig. S1), single replicate (HTLA cells; concentration 0.005 M): 0.003966 and 0.00315 and 0.01104 and 0.009531 and 0.005922 and 0.01091
- Patients who reported itch [2]: 4.5%
- PRESTO-Tango response (fig. S1), single replicate (MRGPRX4 WT (S83); concentration 4.88281e-6 M): 0.1853 and 0.188 and 0.1763 and 0.05734 and 0.2683 and 0.2239
- PRESTO-Tango response (fig. S1), single replicate (MRGPRX4 WT (S83); concentration 9.76563e-6 M): 0.2008 and 0.1594 and 0.1746 and 0.2158 and 0.02233 and 0.2967
- PRESTO-Tango response (fig. S1), single replicate (MRGPRX4 WT (S83); concentration 1.95313e-5 M): 0.2906 and 0.2732 and 0.1192 and 0.006784 and 0.3171 and 0.3592
- PRESTO-Tango response (fig. S1), single replicate (MRGPRX4 WT (S83); concentration 3.90625e-5 M): 0.1519 and 0.183 and 0.2178 and 0.1316 and 0.1884 and 0.2326
- PRESTO-Tango response (fig. S1), single replicate (MRGPRX4 WT (S83); concentration 7.8125e-5 M): 0.1378 and 0.1891 and 0.1982 and 0.232 and 0.1107 and 0.1825
- PRESTO-Tango response (fig. S1), single replicate (MRGPRX4 WT (S83); concentration 0.0003125 M): 0.1547 and 0.2414 and 0.1479 and 0.03891 and 0.4024 and 0.1026
- PRESTO-Tango response (fig. S1), single replicate (MRGPRX4 WT (S83); concentration 0.000625 M): 0.1541 and 0.14 and 0.1288 and 0.1405 and 0.1553 and 0.127
- PRESTO-Tango response (fig. S1), single replicate (MRGPRX4 WT (S83); concentration 0.0025 M): 0.1159 and 0.09904 and 0.1083 and 0.002223 and 0.1612 and 0.1598
- PRESTO-Tango response (fig. S1), single replicate (MRGPRX4 WT (S83); concentration 0.005 M): 0.112 and 0.09938 and 0.09678 and 0.03875 and 0.1733 and 0.09617
